In PubChem BioAssay (NCI) one finds TGI data, which are given here for twelve molecules.

Among the test systems are U251 CNS; SNB-75 CNS; TK-10 renal; HOP-62 NSCLC; LOX IMVI melanoma; OVCAR-3 ovarian; HCC-2998 colon; NCI/ADR-RES ovarian; NCI-H522 lung; SK-OV-3 ovarian; SR leukemia; EKVX NSCLC; RXF 393 renal; PC-3 prostate; NCI-H23 lung; HCT-116 colon; OVCAR-4 ovarian; M14 melanoma; RPMI-8226 leukemia; HOP-92 NSCLC.
Holding throughout (assay): growth of human tumour cells (NCI), 48 h

Structures are written as SMILES.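 Exposure lasted 48 hours, with cells grown in 96-well plates and compounds tested at five concentrations. TGI denotes the concentration required for complete inhibition of growth.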

For `CC1C(=O)C23OC[C@@]1(C)C1(O)CC[C@@H](C)[C@]21CC3=O` (some centres not stated), the TGI in the test on U251 CNS, with SNB-75 CNS, with TK-10 renal, in the test with HOP-62 NSCLC, in the test on LOX IMVI melanoma and in the test with OVCAR-3 ovarian was above 100 µM throughout. Moreover, the TGI with HCC-2998 colon, in the test on NCI/ADR-RES ovarian, in the test with NCI-H522 lung, in the test with SK-OV-3 ovarian, with SR leukemia and in the test on EKVX NSCLC was above 100 µM each time. The TGI in the test with RXF 393 renal, in the test on PC-3 prostate, with NCI-H23 lung, with HCT-116 colon, with OVCAR-4 ovarian and in the test on M14 melanoma was above 100 µM each time. Further, the TGI in the test with RPMI-8226 leukemia is above 100 µM.
As for `O=C(N/C(=C/c1ccc(Cl)cc1)c1nc2ccccc2c(=O)n1Nc1ccc([N+](=O)[O-])cc1[N+](=O)[O-])c1ccccc1`, the TGI with U251 CNS, with SNB-75 CNS, in the test on TK-10 renal, in the test on HOP-62 NSCLC, in the test with LOX IMVI melanoma and with OVCAR-3 ovarian was above 100 µM each time. Moreover, the TGI in the test on HCC-2998 colon, in the test on NCI/ADR-RES ovarian, in the test on NCI-H522 lung, in the test with SK-OV-3 ovarian, in the test on SR leukemia and with HOP-92 NSCLC was above 100 µM each time. For the same molecule, the TGI in the test with PC-3 prostate, in the test with NCI-H23 lung, in the test on HCT-116 colon, with OVCAR-4 ovarian and in the test with M14 melanoma was above 100 µM in each case.
Regarding `COP(=O)(C(/C=C/c1ccccc1)OC(C)=O)[C@@H]1CCCC[C@H]1N(CC(C)(C)C)C(C)=O` (some centres not stated), the TGI in the test on U251 CNS stood at 31.7 µM; in the test on SNB-75 CNS, 22.7 µM; in the test on TK-10 renal, 48.2 µM; in the test on HOP-62 NSCLC, 42.3 µM; in the test on LOX IMVI melanoma it was 30.3 µM; in the test with OVCAR-3 ovarian, 31.9 µM. Further, the TGI in the test with HCC-2998 colon is 28.2 µM; with NCI/ADR-RES ovarian, 42.2 µM; with NCI-H522 lung, 27.9 µM; in the test on SK-OV-3 ovarian it was above 100 µM; with SR leukemia it was 36.2 µM; in the test with EKVX NSCLC it was 57.8 µM. Moreover, the TGI in the test on RXF 393 renal is 22.1 µM; in the test on PC-3 prostate, 37.4 µM; in the test on NCI-H23 lung, 42.5 µM; with HCT-116 colon, 25.6 µM; with OVCAR-4 ovarian, 33.1 µM; in the test with M14 melanoma, 28.8 µM.
On to `Nc1cnc2c(c1)c(=O)nc1n2CCS1`, for which the TGI with U251 CNS, in the test on SNB-75 CNS, in the test on TK-10 renal, with HOP-62 NSCLC, with LOX IMVI melanoma and in the test on OVCAR-3 ovarian was above 100 µM in each case. Further, the TGI in the test with HCC-2998 colon, in the test with NCI/ADR-RES ovarian, in the test on SK-OV-3 ovarian, in the test with EKVX NSCLC, in the test on HOP-92 NSCLC and with RXF 393 renal was above 100 µM each time. Further, the TGI in the test with PC-3 prostate, in the test on NCI-H23 lung, in the test on HCT-116 colon, with OVCAR-4 ovarian and in the test on RPMI-8226 leukemia was above 100 µM throughout.
Take `CCCCCCCCCC(=O)CC(=O)c1c(O)cc(O)cc1O`: the TGI with U251 CNS was above 75 µM; in the test with SNB-75 CNS it was 69.6 µM; in the test with TK-10 renal it was above 75 µM; in the test on HOP-62 NSCLC it was 32.5 µM; in the test with LOX IMVI melanoma it was 35.4 µM; in the test with OVCAR-3 ovarian, 53.2 µM. Also, the TGI in the test with HCC-2998 colon was 31.4 µM; in the test with NCI/ADR-RES ovarian it was 38.6 µM; in the test with NCI-H522 lung it was 47.3 µM; with SK-OV-3 ovarian, above 75 µM; in the test with EKVX NSCLC, above 75 µM; in the test with HOP-92 NSCLC, 44.7 µM. Moreover, the TGI in the test on RXF 393 renal was 31.1 µM; with PC-3 prostate, 41.8 µM; with NCI-H23 lung it was 35.9 µM; in the test on HCT-116 colon, above 75 µM; in the test on OVCAR-4 ovarian, 35.8 µM; in the test with M14 melanoma, 39 µM. Besides, the TGI in the test with RPMI-8226 leukemia amounted to 37.1 µM.
For the molecule `CCOc1ccc2c(c1)NC(=O)C(C1OC(c3ccccc3)=CC1=O)S2` (configuration not stated), the TGI in the test on U251 CNS was 49.2 µM; in the test with TK-10 renal, above 100 µM; with HOP-62 NSCLC, above 100 µM; in the test with LOX IMVI melanoma it was 67 µM; in the test on OVCAR-3 ovarian it was 50.1 µM; in the test on HCC-2998 colon it was 37.7 µM. The TGI in the test with NCI/ADR-RES ovarian turned out to be 67.1 µM; in the test with NCI-H522 lung it was 25.7 µM; in the test on SK-OV-3 ovarian, 52.8 µM; in the test on SR leukemia, 46.1 µM; in the test with EKVX NSCLC, 62.3 µM; in the test with RXF 393 renal, 42.8 µM. Moreover, the TGI is 51.4 µM in the test on PC-3 prostate; 94.2 µM in the test with NCI-H23 lung; 88.2 µM in the test with HCT-116 colon; above 100 µM in the test with M14 melanoma; 30.5 µM with RPMI-8226 leukemia.
Regarding `CN(CC#N)C(=O)Cc1ccc([N+](=O)[O-])cc1`, the TGI in the test on U251 CNS, with TK-10 renal, in the test on HOP-62 NSCLC, in the test on LOX IMVI melanoma, in the test with OVCAR-3 ovarian and with HCC-2998 colon was above 10 µM throughout. The TGI in the test with NCI/ADR-RES ovarian, with SK-OV-3 ovarian, in the test with SR leukemia, in the test on EKVX NSCLC, in the test on RXF 393 renal and with PC-3 prostate was above 10 µM each time. Further, the TGI with NCI-H23 lung, in the test on HCT-116 colon, with OVCAR-4 ovarian, in the test on M14 melanoma and with RPMI-8226 leukemia was above 10 µM in each case.
Take `COc1ccc2c(c1)CC[C@@H]1[C@@H]2CC[C@]2(C)[C@@H](O)/C(=C/c3ccncc3)C[C@@H]12`: the TGI in the test with U251 CNS was 25.1 µM; with SNB-75 CNS, 39.8 µM; in the test on TK-10 renal, 34 µM; in the test with HOP-62 NSCLC, 37.3 µM; with OVCAR-3 ovarian it was 39.3 µM; in the test with HCC-2998 colon, 23.6 µM. The TGI in the test on NCI/ADR-RES ovarian came out at 37.2 µM; in the test on NCI-H522 lung it was 30.6 µM; in the test with SK-OV-3 ovarian it was 49.4 µM; in the test on EKVX NSCLC, 70.6 µM; with HOP-92 NSCLC it was 28 µM; with RXF 393 renal, 17.9 µM. In addition, the TGI is 25.5 µM in the test on PC-3 prostate; 31.7 µM in the test with NCI-H23 lung; 30 µM with HCT-116 colon; above 100 µM in the test with OVCAR-4 ovarian; 30.4 µM with M14 melanoma; 25.1 µM in the test on RPMI-8226 leukemia.
With `COc1ccc(-n2c(=O)n(C)c(=O)n2-c2c(C)c(C)c(C)c(C)c2C)cc1`, the TGI in the test on U251 CNS, in the test with SNB-75 CNS, in the test with TK-10 renal, in the test with HOP-62 NSCLC, in the test on LOX IMVI melanoma and in the test on OVCAR-3 ovarian was above 100 µM each time. Moreover, the TGI in the test with HCC-2998 colon, in the test with NCI/ADR-RES ovarian, with NCI-H522 lung, in the test on SK-OV-3 ovarian, with EKVX NSCLC and with HOP-92 NSCLC was above 100 µM each time. Besides, the TGI with RXF 393 renal, in the test with PC-3 prostate, with NCI-H23 lung, in the test with HCT-116 colon, in the test with OVCAR-4 ovarian and in the test with M14 melanoma was above 100 µM each time. The molecule also registered a TGI with RPMI-8226 leukemia above 100 µM.
`O=C(/C=C/c1ccc(F)c(F)c1)OCCc1ccccc1`: the TGI with U251 CNS, with SNB-75 CNS, in the test with TK-10 renal, with HOP-62 NSCLC, with LOX IMVI melanoma and in the test on OVCAR-3 ovarian was above 100 µM throughout. In addition, the TGI with HCC-2998 colon, in the test with NCI/ADR-RES ovarian, in the test on NCI-H522 lung, with SK-OV-3 ovarian, in the test with SR leukemia and with EKVX NSCLC was above 100 µM each time. Further, the TGI with PC-3 prostate, with NCI-H23 lung, with HCT-116 colon, in the test with OVCAR-4 ovarian, in the test on M14 melanoma and in the test on RPMI-8226 leukemia was above 100 µM throughout.
With `CCOC(=O)CC(N1CC1)N1CC1`, the TGI with U251 CNS, in the test with SNB-75 CNS, in the test with TK-10 renal, in the test on HOP-62 NSCLC, in the test with LOX IMVI melanoma and with OVCAR-3 ovarian was above 10 µM each time. The TGI in the test on HCC-2998 colon, in the test with NCI/ADR-RES ovarian, in the test with NCI-H522 lung, in the test on SK-OV-3 ovarian, in the test on SR leukemia and in the test with EKVX NSCLC was above 10 µM throughout. In addition, the TGI with RXF 393 renal, in the test on PC-3 prostate, in the test with NCI-H23 lung, in the test with HCT-116 colon, with OVCAR-4 ovarian and in the test with M14 melanoma was above 10 µM each time. The same molecule gave a TGI with RPMI-8226 leukemia above 10 µM.
Regarding `CCOC(=O)C(Cc1cn(S(=O)(=O)c2ccc(C)cc2)cn1)P(=O)(OCC)OCC` (configuration not stated), the TGI in the test with U251 CNS, in the test with SNB-75 CNS, in the test with TK-10 renal, with HOP-62 NSCLC, in the test on LOX IMVI melanoma and with OVCAR-3 ovarian was above 100 µM each time. The TGI in the test with HCC-2998 colon, in the test on NCI/ADR-RES ovarian, in the test with NCI-H522 lung, in the test on SK-OV-3 ovarian, in the test on SR leukemia and in the test on EKVX NSCLC was above 100 µM each time. Moreover, the TGI with RXF 393 renal, with PC-3 prostate, with NCI-H23 lung, in the test with HCT-116 colon, with OVCAR-4 ovarian and in the test on M14 melanoma was above 100 µM throughout. Further, the TGI in the test on RPMI-8226 leukemia is above 100 µM.
